Here are results for 22 compounds from patent EP4707277A1, “NOVEL HETEROCYCLIC AMINE DERIVATIVES AND PHARMACEUTICAL COMPOSITION COMPRISING SAME” (Daewoong Pharmaceutical Co., Ltd., priority 2023, dated 2024).

Each structure is given as a SMILES string. Like-named read-outs stand apart in the source and are kept apart here.

Test [1] addresses T1, ITK (Homo sapiens, UniProt Q08881).
T1 construct: purchased Signalchem I13-11G-10
T1 sequence (Q08881 1-620): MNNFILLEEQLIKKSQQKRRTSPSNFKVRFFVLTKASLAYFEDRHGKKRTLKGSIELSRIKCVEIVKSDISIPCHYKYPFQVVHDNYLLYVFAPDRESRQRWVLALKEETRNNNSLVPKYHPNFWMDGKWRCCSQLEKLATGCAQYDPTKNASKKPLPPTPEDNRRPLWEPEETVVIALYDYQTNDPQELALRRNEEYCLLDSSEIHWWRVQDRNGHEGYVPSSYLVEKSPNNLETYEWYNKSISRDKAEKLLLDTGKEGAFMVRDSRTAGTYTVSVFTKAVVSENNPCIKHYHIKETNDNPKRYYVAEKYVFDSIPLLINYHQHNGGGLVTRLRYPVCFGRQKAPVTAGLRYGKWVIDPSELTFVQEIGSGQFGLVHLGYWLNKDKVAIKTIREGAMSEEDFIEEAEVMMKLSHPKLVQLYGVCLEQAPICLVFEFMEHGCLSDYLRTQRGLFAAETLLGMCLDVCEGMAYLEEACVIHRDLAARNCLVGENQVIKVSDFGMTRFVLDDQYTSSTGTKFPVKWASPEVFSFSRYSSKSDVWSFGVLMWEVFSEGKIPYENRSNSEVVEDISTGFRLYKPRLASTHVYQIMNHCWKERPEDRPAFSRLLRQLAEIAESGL
The experiment in a line: Inhibitory activity against ITK, ADP-Glo Kinase system (Promega). In kind it is biochemical. In outline:
(§1)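 ADP-Glo luminescent ADP detection with recombinant human ITK (4 ng/reaction) or BTK (10 ng/reaction) and poly(Glu4,Tyr1) substrate at 0.2 µg/µl. Buffer: Tris pH 7.5, MgCl2, MnCl2, BSA, DTT. ATP 1 mM or Km (BTK 10 µM, ITK 25 µM); 1% DMSO; 1 h at 30°C; IC50 from curve fit.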

Test [2] has as its target T2, BTK (Homo sapiens, UniProt Q06187).
T2 construct: purchased Signalchem B10-10H
Nature of the test: Inhibitory activity against BTK, ADP-Glo Kinase system (Promega). In kind it is biochemical. The essentials:
as §1
(ADP-Glo first removes unused ATP, then detects ADP through luciferase.)

Setting [3] is: 1mM ATP, read-out: ITK IC50(nM) 1mM ATP.
Where [4] appears, read: 1mM ATP, read-out: BTK IC50(nM) 1mM ATP.
Where [5] appears, read: Km ATP (ITK: 25uM), read-out: ITK IC50(nM) Km ATP.
Where [6] appears, read: Km ATP (BTK: 10 uM), read-out: BTK IC50(nM) Km ATP.

T2 sequence (Q06187 whole entry): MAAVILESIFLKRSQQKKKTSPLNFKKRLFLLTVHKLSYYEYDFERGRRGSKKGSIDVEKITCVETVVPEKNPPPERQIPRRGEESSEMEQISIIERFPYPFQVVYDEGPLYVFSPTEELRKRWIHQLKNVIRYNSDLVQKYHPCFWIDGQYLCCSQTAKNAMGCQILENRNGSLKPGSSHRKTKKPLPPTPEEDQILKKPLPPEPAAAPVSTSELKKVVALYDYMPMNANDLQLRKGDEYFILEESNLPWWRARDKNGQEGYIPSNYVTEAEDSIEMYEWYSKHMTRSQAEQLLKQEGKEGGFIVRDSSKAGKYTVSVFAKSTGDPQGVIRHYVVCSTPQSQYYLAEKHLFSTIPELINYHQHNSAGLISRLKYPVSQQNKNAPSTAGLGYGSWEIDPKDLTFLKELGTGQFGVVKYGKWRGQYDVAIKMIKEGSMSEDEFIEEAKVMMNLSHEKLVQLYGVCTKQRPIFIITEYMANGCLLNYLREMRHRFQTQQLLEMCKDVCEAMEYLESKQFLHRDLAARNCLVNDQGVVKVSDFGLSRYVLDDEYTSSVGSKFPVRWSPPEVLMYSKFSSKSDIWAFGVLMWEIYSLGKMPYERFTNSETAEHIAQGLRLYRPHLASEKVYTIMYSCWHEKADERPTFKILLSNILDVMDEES

The IC50 is the concentration at which inhibition is half-maximal. Consider `C=CC(=O)N1C[C@@H](F)[C@H](Oc2nc(Nc3ncc(C)s3)cc3c2ccn3C[C@H](C)CC)C1` [Example 174, 1-((3R,4R)-3-fluoro-4-((1-((R)-2-methylbutyl)-6-((5-methylthiazol-2-yl)amino)-1H-pyrrolo[3,2-c]pyridin-4-yl)oxy)pyrrolidin-1-yl)prop-2-en-1-one], for which the IC50 in test [1] (setting [3]) and in test [2] (setting [4]) was at most 20 nM in each case.
On to `C=CC(=O)N1C2C=C(c3nc(Nc4ncc(C)s4)cc4c3ccn4CC(F)(F)F)CC1CC2` (stereo not shown) [Example 35, 1-(3-(6-((5-methylthiazol-2-yl)amino)-1-(2,2,2-trifluoroethyl)-1H-pyrrolo[3,2-c]pyridin-4-yl)-8-azabicyclo[3.2.1]oct-2-en-8-yl)prop-2-en-1-one], for which the IC50 in test [1] (setting [3]) and in test [2] (setting [4]) was at most 20 nM throughout.
For the compound `C=CC(=O)N1CCC1COc1nc(Nc2ncc(C)s2)cc2c1ccn2C1CCCC1` (stereo not shown) [Example 218, 1-(2-(((1-cyclopentyl-6-((5-methylthiazol-2-yl)amino)-1H-pyrrolo[3,2-c]pyridin-4-yl)oxy)methyl)azetidin-1-yl)prop-2-en-1-one], the IC50 in test [1] (setting [3]) and in test [2] (setting [4]) was at most 20 nM each time.
Take `C=CC(=O)Nc1ccc(F)c(-c2nc(Nc3ncc(C)s3)cc3c2ccn3CC(F)F)c1` [Example 75, N-(3-(1-(2,2-difluoroethyl)-6-((5-methylthiazol-2-yl)amino)-1H-pyrrolo[3,2-c]pyridin-4-yl)-4-fluorophenyl)acrylamide]: the IC50 in test [1] (setting [3]) was 100 to 500 nM; in test [1] (setting [5]) it was at most 20 nM; in test [2] (setting [4]), 20 to 100 nM; in test [2] (setting [6]), at most 20 nM.
`C=CC(=O)N1CC=C(c2nc(Nc3ncc(C)s3)cc3c2ccn3CC2(C(F)(F)F)CC2)CC1` [Example 17, 1-(4-(6-((5-methylthiazol-2-yl)amino)-1-((1-(trifluoromethyl)cyclopropyl)methyl)-1H-pyrrolo[3,2-c]pyridin-4-yl)-3,6-dihydropyridin-1(2H)-yl)prop-2-en-1-one]: the IC50 in test [1] (setting [5]) and in test [2] (setting [6]) was at most 20 nM each time.
For `C=CC(=O)N1CCC2(CCC(Oc3nc(Nc4ncc(C)s4)cc4c3ccn4CC(C)C)C2)C1` (stereo not shown) [Example 204, 1-(7-((1-isobutyl-6-((5-methylthiazol-2-yl)amino)-1H-pyrrolo[3,2-c]pyridin-4-yl)oxy)-2-azaspiro[4.4]nonan-2-yl)prop-2-en-1-one], the IC50 in test [1] (setting [3]) and in test [2] (setting [4]) was above 500 nM throughout.
In the case of `C=CC(=O)N1CCCCC12CC(Oc1nc(Nc3ncc(C)s3)cc3c1ccn3CC(C)C)C2` (stereo not shown) [Example 203, 1-(2-((1-isobutyl-6-((5-methylthiazol-2-yl)amino)-1H-pyrrolo[3,2-c]pyridin-4-yl)oxy)-5-azaspiro[3.5]nonan-5-yl)prop-2-en-1-one], the IC50 in test [1] (setting [3]) and in test [2] (setting [4]) was above 500 nM in each case.
For `C=CC(=O)N1CC=C(c2nc(Nc3nc(C)cs3)cc3c2ccn3C(C)C)CC1` [Example 42, 1-(4-(1-isopropyl-6-((4-methylthiazol-2-yl)amino)-1H-pyrrolo[3,2-c]pyridin-4-yl)-3,6-dihydropyridin-1(2H)-yl)prop-2-en-1-one], the 50% inhibitory concentration (IC50) in test [1] (setting [5]) and in test [2] (setting [6]) was above 500 nM each time.
On to `C=CC(=O)N1C[C@H](F)[C@H](Oc2nc(Nc3ncc(C)s3)cc3c2ccn3C2CCCC2)C1` [Example 109, 1-((3R,4S)-3-((1-cyclopentyl-6-((5-methylthiazol-2-yl)amino)-1H-pyrrolo[3,2-c]pyridin-4-yl)oxy)-4-fluoropyrrolidin-1-yl)prop-2-en-1-one], for which the IC50 in test [1] (setting [3]) and in test [2] (setting [4]) was at most 20 nM each time.
`C=CC(=O)Nc1cc(-c2nc(Nc3ncc(C)s3)cc3c2ccn3CC2CC2)ccc1C` [Example 65, N-(5-(1-(cyclopropylmethyl)-6-((5-methylthiazol-2-yl)amino)-1H-pyrrolo[3,2-c]pyridin-4-yl)-2-methylphenyl)acrylamide]: the IC50 in test [1] (setting [5]) was 20 to 100 nM; in test [2] (setting [6]), at most 20 nM.
For the compound `C=CC(=O)N1C[C@H](F)[C@H](Oc2nc(Nc3ncc(C(=O)NC)s3)cc3c2ccn3CC(C)C)C1` [Example 182, 2-((4-(((3R,4S)-1-acryloyl-4-fluoropyrrolidin-3-yl)oxy)-1-isobutyl-1H-pyrrolo[3,2-c]pyridin-6-yl)amino)-N-methylthiazole-5-carboxamide], the IC50 in test [1] (setting [3]) and in test [2] (setting [4]) was at most 20 nM in each case.
`C=CC(=O)N1C[C@H](F)[C@H](Oc2nc(Nc3ncc(C)s3)cc3c2ccn3CC(C)CC)C1` (stereo partly drawn) [Example 171, 1-((3S,4R)-3-fluoro-4-((1-(2-methylbutyl)-6-((5-methylthiazol-2-yl)amino)-1H-pyrrolo[3,2-c]pyridin-4-yl)oxy)pyrrolidin-1-yl)prop-2-en-1-one]: the IC50 in test [1] (setting [3]) and in test [2] (setting [4]) was at most 20 nM each time.
For `C=CC(=O)N1CC[C@H](Oc2nc(Nc3cc[nH]n3)cc3c2ccn3C(C)C)C1` [Example 192, (S)-1-(3-((6-((1H-pyrazol-3-yl)amino)-1-isopropyl-1H-pyrrolo[3,2-c]pyridin-4-yl)oxy)pyrrolidin-1-yl)prop-2-en-1-one], the 50% inhibitory concentration (IC50) in test [1] (setting [3]) is 100 to 500 nM; in test [2] (setting [4]) it was at most 20 nM.
For `C=CC(=O)N1CC[C@H](Oc2nc(Nc3ncc(C)s3)cc3c2ccn3CCC)C1` [Example 126, (S)-1-(3-((6-((5-methylthiazol-2-yl)amino)-1-propyl-1H-pyrrolo[3,2-c]pyridin-4-yl)oxy)pyrrolidin-1-yl)prop-2-en-1-one] the same measures were at most 20 nM and at most 20 nM.
For `C=CC(=O)N1CCC[C@H](Oc2nc(Nc3ncc(C)s3)cc3c2ccn3CCC)C1` [Example 160, (S)-1-(3-((6-((5-methylthiazol-2-yl)amino)-1-propyl-1H-pyrrolo[3,2-c]pyridin-4-yl)oxy)piperidin-1-yl)prop-2-en-1-one] the same measures were 100 to 500 nM and 100 to 500 nM.
For the compound `C=CC(=O)N1CCC[C@@H]1COc1nc(Nc2ncc(C)s2)cc2c1ccn2CC(F)(F)F` [Example 207, (R)-1-(2-(((6-((5-methylthiazol-2-yl)amino)-1-(2,2,2-trifluoroethyl)-1H-pyrrolo[3,2-c]pyridin-4-yl)oxy)methyl)pyrrolidin-1-yl)prop-2-en-1-one], the IC50 in test [1] (setting [3]) and in test [2] (setting [4]) was at most 20 nM in each case.
`C=CC(=O)N1C2C=C(c3nc(Nc4ncc(C)s4)cc4c3ccn4C3CCCC3)CC1CC2` (stereo not shown) [Example 33, 1-(3-(1-cyclopentyl-6-((5-methylthiazol-2-yl)amino)-1H-pyrrolo[3,2-c]pyridin-4-yl)-8-azabicyclo[3.2.1]oct-2-en-8-yl)prop-2-en-1-one]: the IC50 in test [1] (setting [3]) and in test [2] (setting [4]) was at most 20 nM each time.
As to `C=CC(=O)N1CC[C@H](Oc2nc(Nc3ncc(C)s3)cc3c2ccn3CC(F)F)C1` [Example 206, (S)-1-(3-((1-(2,2-difluoroethyl)-6-((5-methylthiazol-2-yl)amino)-1H-pyrrolo[3,2-c]pyridin-4-yl)oxy)pyrrolidin-1-yl)prop-2-en-1-one], the IC50 in test [1] (setting [3]) and in test [2] (setting [4]) was at most 20 nM each time.
As for `C=CC(=O)N1C[C@@H](F)[C@H](Oc2nc(Nc3ncc(C)s3)cc3c2ccn3CC2CCCC2)C1` [Example 170, 1-((3R,4R)-3-((1-(cyclopentylmethyl)-6-((5-methylthiazol-2-yl)amino)-1H-pyrrolo[3,2-c]pyridin-4-yl)oxy)-4-fluoropyrrolidin-1-yl)prop-2-en-1-one], the IC50 in test [1] (setting [3]) and in test [2] (setting [4]) was at most 20 nM in each case.
On to `C=CC(=O)N1CCC[C@@H](COc2nc(Nc3ncc(C)s3)cc3c2ccn3CC(C)C)C1` [Example 214, (R)-1-(3-(((1-isobutyl-6-((5-methylthiazol-2-yl)amino)-1H-pyrrolo[3,2-c]pyridin-4-yl)oxy)methyl)piperidin-1-yl)prop-2-en-1-one], for which the IC50 in test [1] (setting [3]) was above 500 nM; in test [2] (setting [4]), 20 to 100 nM.
For `C=CC(=O)N1C[C@H](F)[C@H](Oc2nc(Nc3ncc(C)s3)cc3c2ccn3[C@@H](C)CC)C1` [Example 112, 1-((3R,4S)-3-((1-((S)-sec-butyl)-6-((5-methylthiazol-2-yl)amino)-1H-pyrrolo[3,2-c]pyridin-4-yl)oxy)-4-fluoropyrrolidin-1-yl)prop-2-en-1-one] the same measures were at most 20 nM and at most 20 nM.
With `C=CC(=O)N1CC=C(c2nc(Nc3ncc(C)s3)cc3c2ccn3[C@@H](C)CC)CC1` [Example 13, (S)-1-(4-(1-(sec-butyl)-6-((5-methylthiazol-2-yl)amino)-1H-pyrrolo[3,2-c]pyridin-4-yl)-3,6-dihydropyridin-1(2H)-yl)prop-2-en-1-one], the IC50 in test [1] (setting [5]) and in test [2] (setting [6]) was at most 20 nM each time.
